Measurements from patent publication US20050234119A1, “Antiparasitical agents and methods for treating, preventing and controlling external parasites in animals” (priority 2004, published 2005).

Key:
[1] = In vitro degradation studies of the thioamide derivative of fipronil in CH3CN/H2O under degradation agents; format: physicochemical
Procedure: A solution containing thioamide derivative of fipronil in a solution of CH3CN/H2O (50:50 v/v) and the solution was subjected to the following degradation agents: 0.5 N HCl; 0.5 N NaOH; 5% H2O2; UV light; fluorescent light and heat (65° C.).

[2] = Concentration in the fur of a dog after topical spot-on solution of the thioamide; format: in vivo; conditions: 0.1 ml/kg
Procedure: A topical spot-on solution of the thioamide solution containing 100 mg/ml of thioamide and diethylene glycol monoethyl ether was applied to the fur of a dog at the dose rate of 0.1 ml/kg of body weight. The concentration of fipronil in the fur was measured on day 2 and day 7.

[3] = Concentration in blood plasma of dogs after oral solution of the thioamide derivative of fipronil; format: in vivo
Procedure: An oral formulation (solution) comprising 100 mg/ml of thioamide derivatives of fipronil dissolved in 60:40 propylene glycol: glycerol formal was administered to dogs and the concentration of fipronil in blood plasma measured at 6 hours, day 1, day 2, and day 7 and is presented below

amounts of fipronil formed ([1]; 0.5 N HCl, 4 days): negligible
thioamide derivative degraded ([1]; 0.5 N HCl, in 4 days, solution of CH3CN/H2O (50:50 v/v)): 2.7%
fipronil formed ([1]; 0.5 N NaOH, 1 hour): hour, but no fipronil was formed
fipronil sulfone formed ([1]; 5% H2O2, 1.5 hours): sulfone was formed.
degraded to fipronil ([1]; Fluorescent light, in 4 days, CH3CN/H2O (50:50 v/v)): 23% degraded to fipronil in 4 days.
concentration at 2 day ([2]; Day 2, topical spot-on 100 mg/ml thioamide in diethylene glycol monoethyl ether): 363000 ng/g
concentration at 7 day ([2]; Day 7, topical spot-on 100 mg/ml thioamide in diethylene glycol monoethyl ether): 59300 ng/g
concentration in blood plasma ([3]; Pre-treatment, oral solution 100 mg/ml thioamide derivative in 60:40 propylene glycol:glycerol formal): 0.0 µg/g
concentration at 6 h ([3]; dog, plasma, Day 0.25 (6 hours), oral solution 100 mg/ml thioamide derivative): 262000 ng/g
concentration at 1 day ([3]; dog, plasma, Day 1, oral solution 100 mg/ml thioamide derivative): 162000 ng/g
concentration at 2 day ([3]; dog, plasma, Day 2, oral solution 100 mg/ml thioamide derivative): 129000 ng/g
concentration at 7 day ([3]; dog, plasma, Day 7, oral solution 100 mg/ml thioamide derivative): 54600 ng/g
Compound: NC(=S)c1nn(-c2c(Cl)cc(C(F)(F)F)cc2Cl)c(N)c1[S+]([O-])C(F)(F)F (stereo not shown) [thioamide derivative of fipronil]
stability in acid ([1]; 0.5 N HCl): Thioamide derivative stable in acid with only
thioamide derivative degraded ([1]; 0.5 N NaOH, in 1 hour, CH3CN/H2O (50:50 v/v)): 95% if the thioamide derivative degraded in 1
fipronil formed ([1]; 5% H2O2, 1.5 hours): 1.5 hours but no fipronil was formed; fipronil
thioamide derivative degraded ([1]; 5% H2O2, in 1.5 hours, CH3CN/H2O (50:50 v/v)): 100% of the thioamide derivation degraded in
degraded to fipronil ([1]; Heat (65° C.), in 4 days, CH3CN/H2O (50:50 v/v)): 20% of the thioamide derivation degraded to
thioamide derivative degraded ([1]; UV light, in 1 hour, CH3CN/H2O (50:50 v/v)): 24% of the thioamide derivation degraded in 1
in-vivo degradation into fipronil ([3]; oral solution): degrades into fipronil in-vivo in amounts that are sufficient for efficacy
